Our source for the inhibition values is patent publication US11667621B2, “Antiestrogen compounds” (STEVENS INSTITUTE OF TECHNOLOGY, priority 2018, dated 2023).

Numbering of substitutions follows the chain as printed.

Common to all, as to assay: Luciferase assay, overexpressed ER (3×-ERE-TATA-Luciferase reporter)
What all share (type): cell-based
Background: A reporter such as luciferase makes a cellular process visible.

The target in one experiment is T1, HA-ERα L536R (Homo sapiens, UniProt P03372, L536R).
T1 construct: HA; expressed in transfected cells
T1 sequence (P03372 1-595 L536R): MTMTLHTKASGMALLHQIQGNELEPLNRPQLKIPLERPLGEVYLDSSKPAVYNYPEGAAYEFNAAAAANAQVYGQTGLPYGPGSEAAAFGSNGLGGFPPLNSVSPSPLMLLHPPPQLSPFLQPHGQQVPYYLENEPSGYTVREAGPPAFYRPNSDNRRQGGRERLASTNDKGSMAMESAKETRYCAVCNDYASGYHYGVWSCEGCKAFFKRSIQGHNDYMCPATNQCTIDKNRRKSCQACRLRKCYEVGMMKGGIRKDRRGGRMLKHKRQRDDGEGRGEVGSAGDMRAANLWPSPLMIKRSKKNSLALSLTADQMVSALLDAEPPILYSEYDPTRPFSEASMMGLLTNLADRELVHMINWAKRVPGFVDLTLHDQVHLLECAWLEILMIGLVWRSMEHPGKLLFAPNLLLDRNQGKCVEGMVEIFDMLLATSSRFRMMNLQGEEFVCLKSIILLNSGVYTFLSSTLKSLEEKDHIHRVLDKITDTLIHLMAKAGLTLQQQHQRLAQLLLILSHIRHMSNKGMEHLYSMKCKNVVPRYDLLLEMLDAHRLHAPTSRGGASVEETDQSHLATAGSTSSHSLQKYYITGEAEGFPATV
The note with it: compound concentration 1 μM, 24 hours. The method, then:
(§1) Luciferase assays were performed to determine the efficacy of the example compounds at inhibiting ER or its mutants' ability to activate transcription of genes.
(§2) Cells were plated at a density of 0.15×10^6 per well of 24 well plates one day prior to transfection. Cells were transfected with 125 ng (per well) of HA-ERα wild type or mutants, 315 ng (per well) of 3×-ERE-TATA-Luciferase reporter and 50 ng (per well) of pRL-TK Renilla Luciferase plasmid, using Xtremegene (Roche). The cells were treated with the various compounds or Fulvestrant at the indicated doses a day after transfection for 24 hours and luciferase activities were determined using the Dual-Luciferase® Reporter Assay System (Promega) according to manufacturer's instructions. Luciferase bioluminescence measurements were performed with the Veritas™ Microplate Luminometer (Promega). All experiments were conducted in triplicate and the Firefly luciferase activity was normalized with the Renilla luciferase activity of each sample.

Another experiment has as its target T2, HA-ERα Y537S (Homo sapiens, UniProt P03372, Y537S).
T2 construct: HA; expressed in transfected cells
T2 sequence (P03372 1-595 Y537S): T1 sequence (P03372 1-595 L536R) with R536L, Y537S
To be noted: compound concentration 1 μM, 24 hours. On the procedure:
as §1, §2

For the next experiment, the target named is T3, HA-ERα wild type (Homo sapiens, UniProt P03372).
T3 construct: HA; expressed in transfected cells
T3 sequence (P03372 1-595): T1 sequence (P03372 1-595 L536R) with R536L
To be noted: compound concentration 1 μM, 24 hours; read-out: Overexpressed ER (% Inhibition) WT. The method, then:
as §1, §2

The target in another experiment is T4, HA-ERα D538G (Homo sapiens, UniProt P03372, D538G).
T4 construct: HA; expressed in transfected cells
T4 sequence (P03372 1-595 D538G): T1 sequence (P03372 1-595 L536R) with R536L, D538G
The note with it: compound concentration 1 μM, 24 hours. The method, then:
as §1, §2

Take `O=C(NCCCCOc1ccc(Oc2c(-c3ccc(O)cc3)sc3cc(O)ccc23)cc1)C1CC(F)(F)C1` [Example 29, 3,3-Difluoro-N-(4-(4-((6-hydroxy-2-(4-hydroxyphenyl)benzo[b]thiophen-3-yl)oxy)phenoxy)butyl)cyclobutanecarboxamide]: the inhibition at 1 µM amounted to 90% against HA-ERα L536R, 1% against HA-ERα Y537S, 39% on HA-ERα wild type and 73% against HA-ERα D538G.
On to `O=C(NCCCCOc1ccc(C(=C2CCCCC2)c2ccc(O)cc2)cc1)C1CCCCC1` [Example 23, N-(4-(4-(Cyclohexylidene(4-hydroxyphenyl)methyl)phenoxy)butyl)-cyclohexanecarboxamide], for which the inhibition at 1 µM at HA-ERα L536R was 43%; against HA-ERα Y537S it was -169%; at HA-ERα wild type, -25%; against HA-ERα D538G, 0%.
In the case of `O=C(NCCCCOc1ccc(C(=C2CCCCC2)c2ccc(O)cc2)cc1)C1CCC1` [Example 24, N-(4-(4-(Cyclohexylidene(4-hydroxyphenyl)methyl)phenoxy)-butyl)cyclobutanecarboxamide], the inhibition at 1 µM on HA-ERα L536R is -75%; at HA-ERα Y537S it was -160%; at HA-ERα wild type, -83%; on HA-ERα D538G, -7%.
Turning to `O=C(COc1cccc2c1C(=O)N(C1CCC(=O)NC1=O)C2=O)NCCCCOc1ccc(C(=C2C3CC4CC(C3)CC2C4)c2ccc(O)cc2)cc1` (stereo not shown) [Example 15, N-(4-(4-(Adamantan-2-ylidene(4-hydroxyphenyl)methyl)phenoxy)butyl)-2-((2-(2,6-dioxopiperidin-3-yl)-1,3-dioxoisoindolin-4-yl)oxy)acetamide], the inhibition at 1 µM against HA-ERα L536R is 82%; against HA-ERα Y537S, -51%; on HA-ERα wild type it was 85%; on HA-ERα D538G, 93%.
The matching figures for `O=C(NCCCCOc1ccc(C(=C2CCCCC2)c2ccc(O)cc2)cc1)C12CC3CC(CC(C3)C1)C2` [Example 26, N-(4-(4-(Cyclohexylidene(4-hydroxyphenyl)methyl)phenoxy)-butyl)adamantane-1-carboxamide]: 69%, -32%, 52% and 65%.
The matching figures for `O=C(NCCCCOc1ccc(Oc2c(-c3ccc(O)cc3)sc3cc(O)ccc23)cc1)C1CCC1` [Example 28, N-(4-(4-((6-Hydroxy-2-(4-hydroxyphenyl)benzo[b]thiophen-3-yl)oxy)phenoxy)butyl)cyclobutanecarboxamide]: 43%, -64%, 13% and 60%.
The matching figures for `O=C1CCC(N2C(=O)c3cccc(OCCOCCOCCOc4ccc(C(=C5C6CC7CC(C6)CC5C7)c5ccc(O)cc5)cc4)c3C2=O)C(=O)N1` (stereo not shown) [Example 18, 4-(2-(2-(2-(4-(Adamantan-2-ylidene(4-hydroxyphenyl)methyl)phenoxy)-ethoxy)ethoxy)ethoxy)-2-(2,6-dioxopiperidin-3-yl)isoindoline-1,3-dione]: 84%, -75%, 80% and 86%.
Turning to `O=C1CCC(N2C(=O)c3cccc(OCCOCCOc4ccc(C(=C5C6CC7CC(C6)CC5C7)c5ccc(O)cc5)cc4)c3C2=O)C(=O)N1` (stereo not shown) [Example 19, 4-(2-(2-(4-(Adamantan-2-ylidene(4-hydroxyphenyl)methyl)phenoxy)-ethoxy)ethoxy)-2-(2,6-dioxopiperidin-3-yl)isoindoline-1,3-dione], the inhibition at 1 µM was 83% against HA-ERα L536R, -136% against HA-ERα Y537S, 82% at HA-ERα wild type and 90% at HA-ERα D538G.
`O=C(NCCCCOc1ccc(C(=C2CCCCC2)c2ccc(O)cc2)cc1)[C@H]1CC[C@H](C(F)(F)F)CC1` [Example 25, (trans)-N-(4-(4-(Cyclohexylidene(4-hydroxyphenyl)methyl)phenoxy)butyl)-4-(trifluoromethyl)cyclohexanecarboxamide]: the inhibition at 1 µM is 36% at HA-ERα L536R, -39% against HA-ERα Y537S, 77% on HA-ERα wild type and 42% at HA-ERα D538G.
As for `O=C(COc1cccc2c1C(=O)N(C1CCC(=O)NC1=O)C2=O)NCCCCCCOc1ccc(C(=C2C3CC4CC(C3)CC2C4)c2ccc(O)cc2)cc1` (stereo not shown) [Example 16, N-(6-(4-(Adamantan-2-ylidene(4-hydroxyphenyl)methyl)phenoxy)hexyl)-2-((2-(2,6-dioxopiperidin-3-yl)-1,3-dioxoisoindolin-4-yl)oxy)acetamide], the inhibition at 1 µM against HA-ERα L536R was 64%; against HA-ERα Y537S it was -65%; at HA-ERα wild type it was 81%; on HA-ERα D538G it was 61%.

What is called inhibition is the change of the read-out against control, counted positive when it falls.
